Measurements reported in publication PMC7840908 (Communications Biology, 2021).
Values joined by “and” are separate entries in the source; they are usually repeats but may differ in a detail not shown here. Identical values can stand only once.

Key:
[1] = tested on: MERS-CoV; conditions: cited from earlier work
[2] = biological target: T1, MERS-CoV macro domain (Middle East respiratory syndrome-related coronavirus, UniProt K9N638); type: binding
[3] = biological target: T1, MERS-CoV macro domain; type: binding; remark: listed apart in the source
[4] = biological target: T1, MERS-CoV macro domain; type: binding; remark: listed apart in the source
[5] = biological target: T1, MERS-CoV macro domain; type: binding; remark: listed apart in the source
[6] = biological target: T1, MERS-CoV macro domain; type: biochemical

T1 sequence (K9N638 1110-1276 limits assumed): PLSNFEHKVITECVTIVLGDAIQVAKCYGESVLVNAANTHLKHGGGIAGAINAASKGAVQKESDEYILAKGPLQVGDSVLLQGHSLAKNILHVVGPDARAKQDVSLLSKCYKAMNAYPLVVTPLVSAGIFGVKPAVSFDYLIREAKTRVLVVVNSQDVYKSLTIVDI

Oc1ccc(/C=C/c2cc(O)cc(O)c2)cc1 [resveratrol]
Effect on replication of MERS-CoV [1]: inhibit the replication of MERS-CoV

Nc1ncnc2c1ncn2C1OC(COP(=O)(O)OP(=O)(O)OCC2OC(O)C(O)C2O)C(O)C1O (stereo not shown) [ADPR, ADP-ribose]
NMR CSP, residue 2 [2]: 0.05411
NMR CSP, residue 3 [2]: 0.1983 and 0.2813
NMR CSP, residue 5 [2]: 0.069
NMR CSP, residue 6 [2]: 0.06294 and 0.07046
NMR CSP, residue 7 [2]: 0.1539 and 0.09995
NMR CSP, residue 8 [2]: 0.1145 and 0.09451
NMR CSP, residue 13 [2]: 0.06576 and 0.04291
NMR CSP, residue 15 [2]: 0.1078 and 0.09719
NMR CSP, residue 16 [2]: 0.1514 and 0.1186
NMR CSP, residue 17 [2]: 0.0814 and 0.0623
NMR CSP, residue 18 [2]: 0.08432 and 0.05219
NMR CSP, residue 19 [2]: 0.3848 and 0.3419
NMR CSP, residue 20 [2]: 0.8973 and 0.7322
NMR CSP, residue 22 [2]: 0.3525 and 0.4007
NMR CSP, residue 23 [2]: 0.383
NMR CSP, residue 25 [2]: 0.05156 and 0.08317
NMR CSP, residue 26 [2]: 0.1992 and 0.1277
NMR CSP, residue 27 [2]: 0.03208
NMR CSP, residue 28 [2]: 0.1376 and 0.09301
NMR CSP, residue 29 [2]: 0.03731 and 0.02244
NMR CSP, residue 31 [2]: 0.0401 and 0.04027
NMR CSP, residue 32 [2]: 0.3295 and 0.3317
NMR CSP, residue 40 [2]: 0.1305
NMR CSP, residue 42 [2]: 0.3421 and 0.2454
NMR CSP, residue 45 [2]: 0.9446
NMR CSP, residue 46 [2]: 1.504 and 1.393
NMR CSP, residue 48 [2]: 1.083
NMR CSP, residue 49 [2]: 0.7736
NMR CSP, residue 50 [2]: 0.4669 and 0.3863
NMR CSP, residue 51 [2]: 0.1048 and 0.1583
NMR CSP, residue 52 [2]: 0.2728 and 0.1547
NMR CSP, residue 53 [2]: 0.1687 and 0.136
NMR CSP, residue 54 [2]: 0.08878 and 0.08252
NMR CSP, residue 55 [2]: 0.1049 and 0.106
NMR CSP, residue 56 [2]: 0.1546 and 0.1346
NMR CSP, residue 57 [2]: 0.138 and 0.07814
NMR CSP, residue 59 [2]: 0.122 and 0.1437
NMR CSP, residue 60 [2]: 0.1518 and 0.1952
NMR CSP, residue 62 [2]: 0.2878 and 0.2628
NMR CSP, residue 63 [2]: 0.1045 and 0.05935
NMR CSP, residue 64 [2]: 0.3272 and 0.2442
NMR CSP, residue 66 [2]: 0.09722 and 0.08557
NMR CSP, residue 67 [2]: 0.1931 and 0.1393
NMR CSP, residue 68 [2]: 0.02796 and 0.05038
NMR CSP, residue 71 [2]: 0.06402
NMR CSP, residue 73 [2]: 0.05219
NMR CSP, residue 74 [2]: 0.2006 and 0.1195
NMR CSP, residue 76 [2]: 0.3259 and 0.302
NMR CSP, residue 77 [2]: 0.2091 and 0.1118
NMR CSP, residue 78 [2]: 0.3066 and 0.2179
NMR CSP, residue 79 [2]: 0.2231 and 0.1318
NMR CSP, residue 81 [2]: 0.02964 and 0.02247
NMR CSP, residue 82 [2]: 0.08035 and 0.07748
NMR CSP, residue 88 [2]: 0.05214 and 0.02732
NMR CSP, residue 90 [2]: 0.03514 and 0.02202
NMR CSP, residue 91 [2]: 0.0404 and 0.05921
NMR CSP, residue 92 [2]: 0.2456 and 0.1395
NMR CSP, residue 93 [2]: 0.4982 and 0.3283
NMR CSP, residue 94 [2]: 1.407 and 1.235
NMR CSP, residue 95 [2]: 0.4425 and 0.3726
NMR CSP, residue 97 [2]: 0.5401 and 0.4521
NMR CSP, residue 100 [2]: 0.1106 and 0.08163
NMR CSP, residue 105 [2]: 0.06587
NMR CSP, residue 106 [2]: 0.1936 and 0.1903
NMR CSP, residue 107 [2]: 0.1268 and 0.1117
NMR CSP, residue 108 [2]: 0.06699 and 0.04787
NMR CSP, residue 110 [2]: 0.1341 and 0.1262
NMR CSP, residue 116 [2]: 0.02109 and 0.03031
NMR CSP, residue 117 [2]: 0.04981 and 0.05032
NMR CSP, residue 120 [2]: 0.07982 and 0.07783
NMR CSP, residue 125 [2]: 0.9414 and 0.7836
NMR CSP, residue 126 [2]: 0.4011 and 0.2956
NMR CSP, residue 127 [2]: 0.636 and 0.5379
NMR CSP, residue 131 [2]: 0.2256 and 0.1765
NMR CSP, residue 132 [2]: 0.8759
NMR CSP, residue 133 [2]: 0.6064 and 0.6446
NMR CSP, residue 135 [2]: 0.1312 and 0.07635
NMR CSP, residue 136 [2]: 0.08199 and 0.1121
NMR CSP, residue 137 [2]: 0.1059 and 0.1517
NMR CSP, residue 138 [2]: 0.1473 and 0.115
NMR CSP, residue 139 [2]: 0.07462 and 0.1086
NMR CSP, residue 140 [2]: 0.04879 and 0.03054
NMR CSP, residue 141 [2]: 0.06216 and 0.08925
NMR CSP, residue 145 [2]: 0.2809 and 0.3196
NMR CSP, residue 148 [2]: 0.04359 and 0.06607
NMR CSP, residue 149 [2]: 0.112 and 0.08955
NMR CSP, residue 150 [2]: 0.04 and 0.03962
NMR CSP, residue 152 [2]: 0.255 and 0.1438
NMR CSP, residue 153 [2]: 0.3264 and 0.2803
NMR CSP, residue 154 [2]: 0.8835 and 0.7254
NMR CSP, residue 155 [2]: 0.3976 and 0.2797
NMR CSP, residue 156 [2]: 0.2021
NMR CSP, residue 157 [2]: 0.1187 and 0.09085
NMR CSP, residue 158 [2]: 0.04463 and 0.03077
NMR CSP, residue 162 [2]: 0.06097 and 0.0557
NMR CSP, residue 163 [2]: 0.2144 and 0.1623
NMR CSP, residue 164 [2]: 0.08089 and 0.05482
entropy contribution [3]: −9.30 ± 17.61 J/mol K
n (stoichiometry of binding) [3]: 1.25 ± 0.08 and 1.20 ± 0.19
Melting temperature (Tm) of the MERS-CoV macro domain in complex, CD [4]: 48.8 °C
Melting temperature (Tm) of the MERS-CoV macro domain in complex, DSF [5]: 49.0 °C
Effect on MAR signals in the deMAR reaction [6]: the MAR signals reduced fewer
